Measurements as given in patent US20260242335A1, “HETEROCYCLOALKYL BETA-HYDROXY ALKYL AMINES FOR USE IN THE TREATMENT OF HYPERGLYCAEMIA AND DISORDERS CHARACTERISED BY HYPERGLYCAEMIA” (ATROGI AB, priority 2023, published 2026).
Counter-ions that a name gives are not always drawn.

What was measured:
[1] = tested on: L6-myotubes; experiment: Glucose uptake (3H-2-deoxyglucose) in differentiated L6-myotubes, compared to isoproterenol; assay type: cell-based; details: compound at 10 μM vs isoproterenol at 10 μM, read-out: Biological example 1: glucose uptake activity compared to that of isoproterenol
Method in brief: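 Differentiated L6 myotubes, serum-starved overnight in 0.5% fatty-acid-free BSA, were pretreated 1 h 40 min with agonist at 1×10^−5 M final, then re-dosed in glucose-free medium for 20 min. Uptake of 50 nM 3H-2-deoxyglucose over 10 min was read by scintillation counting and compared with isoproterenol.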

[2] = tested on: L6-myotubes; experiment: Measurement of intracellular cAMP levels (alpha screen cAMP kit) in differentiated cells, compared to isoproterenol; assay type: cell-based; details: 0.25 h, compound at 10 μM vs isoproterenol at 10 μM, 15 min stimulation, read-out: Biological example 2: intracellular cAMP level activity compared to that of isoproterenol
Method in brief: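 Rat L6 myoblasts differentiated to myotubes over 7 days in 2% FBS, serum-starved overnight, then stimulated 15 min with agonist at 1×10^−5 M final in HBSS with 1 mM IBMX, pH 7.4. cAMP measured by AlphaScreen after ethanol extraction and lysis; activity expressed relative to isoproterenol.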

With `CC(C)(CC1CCN(C(=O)C(C)(C)C)CC1)NC[C@H](O)c1cccc(F)c1` [Example 41, (R)-1-(4-(2-((2-(3-Fluorophenyl)-2-hydroxyethyl)amino)-2-methyl-propyl)piperidin-1-yl)-2,2-dimethylpropan-1-one] the Emax at 10 µM [1] was 25 to 50% and the Emax at 10 µM [2] was under 25%.

In the case of `CC(C)(C[C@@H]1CCCN(C(=O)C(C)(C)C)C1)NC[C@H](O)c1cncc(F)c1` [Example 15, 1-((S)-3-(2-(((R)-2-(5-Fluoropyridin-3-yl)-2-hydroxyethyl)amino)-2-methylpropyl)piperidin-1-yl)-2,2-dimethylpropan-1-one], the Emax at 10 µM [1] is reported as over 75% and the Emax at 10 µM [2] is reported as under 25%.

`COC(=O)N1CCC[C@@H](CC(C)(C)NC[C@H](O)c2cncc(F)c2)C1` [Example 17, Methyl (S)-3-(2-(((R)-2-(5-fluoropyridin-3-yl)-2-hydroxyethyl)amino)-2-methylpropyl)piperidine-1-carboxylate dihydrochloride] showed an Emax at 10 µM [1] of over 75% and an Emax at 10 µM [2] of over 75%.
